ChEMBL document CHEMBL1129522, “Inhibitors of acyl-CoA:cholesterol O-acyltransferase. 17. Structure-activity relationships of several series of compounds derived from N-chlorosulfonyl isocyanate” (J Med Chem, 1996)
Values joined by “and” are separate entries in the source; they are usually repeats but may differ in a detail not shown here. Equal entries are not always repeated.

What was measured:
[1] = biological target: T1, Sterol O-acyltransferase 1 (Rattus norvegicus, UniProt O70536); test: In vitro inhibitory activity against acyl coenzyme A:cholesterol acyltransferase 1 in microsomes of rat liver
T1 sequence (O70536 whole entry): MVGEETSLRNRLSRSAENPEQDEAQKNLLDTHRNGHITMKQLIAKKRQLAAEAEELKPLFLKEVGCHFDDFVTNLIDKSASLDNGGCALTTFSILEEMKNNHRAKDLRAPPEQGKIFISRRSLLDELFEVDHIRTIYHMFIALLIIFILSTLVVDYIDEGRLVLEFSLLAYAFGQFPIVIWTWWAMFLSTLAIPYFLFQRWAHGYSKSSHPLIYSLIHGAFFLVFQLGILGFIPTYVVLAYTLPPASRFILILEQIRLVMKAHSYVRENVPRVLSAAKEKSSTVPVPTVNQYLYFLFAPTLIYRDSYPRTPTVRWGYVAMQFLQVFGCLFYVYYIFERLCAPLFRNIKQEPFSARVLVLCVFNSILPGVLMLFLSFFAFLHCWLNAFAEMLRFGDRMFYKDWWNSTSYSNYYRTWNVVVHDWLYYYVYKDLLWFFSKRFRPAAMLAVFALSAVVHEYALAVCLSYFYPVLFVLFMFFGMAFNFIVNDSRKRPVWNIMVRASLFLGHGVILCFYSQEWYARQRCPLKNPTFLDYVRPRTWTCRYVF

[2] = biological target: T2, Sterol O-acyltransferase 1 (Rattus norvegicus) (UniProt O70536); test: Acute in vivo activity was measured by the total plasma cholesterol concentration levels(TC) at dose 3 mg/kg; assay type: functional, organism-based; parameters: dose 3 mg/kg
T2 sequence (whole entry): T1 sequence (O70536 whole entry)

[3] = biological target: T2, Sterol O-acyltransferase 1 (Rattus norvegicus); test: Chronic in vivo activity was measured by the concentration of high density lipoproteins (HDL) in cholesterol fed rats; assay type: functional, organism-based
[4] = biological target: T2, Sterol O-acyltransferase 1 (Rattus norvegicus); test: Chronic in vivo activity was measured by the total cholesterol concentration levels in cholesterol fed rats; assay type: functional, organism-based
[5] = test system: Rattus norvegicus; test: Acute in vivo activity measured by total plasma cholesterol concentration levels (TC) at 30 mg/kg dose; assay type: functional

| SMILES | IC50 [1] [µM] | Delta TC [2] | Delta HDL [3] | Delta TC [4] | Delta TC [5] [%] |
| --- | --- | --- | --- | --- | --- |
| CCCCCCN(CCCCCC)S(=O)(=O)NC(=O)Oc1c(C(C)C)cccc1C(C)C | 4.2 | -74% | 144% | -75% |  |
| CCCCCCCCCCCCCCCCOS(=O)(=O)NC(=O)Oc1c(C(C)C)cccc1C(C)C | 10.3 | -42% |  |  | -60 |
| Cc1cc(C(C)(C)C)c(OC(=O)NS(=O)(=O)Oc2ccccc2)c(C(C)(C)C)c1 | 90 | -15% |  |  | -65 |
| CCCCCCCCN(CCCCCCCC)S(=O)(=O)NC(=O)Oc1c(C(C)C)cccc1C(C)C | 58 | -67% | 156% | -80% |  |
| CCCCCCC(C)OS(=O)(=O)NC(=O)Nc1c(C(C)C)cccc1C(C)C (stereo unspecified) | 35 | 10% |  |  | -51 |
| CC(C)c1cc(F)cc(C(C)C)c1OC(=O)NS(=O)(=O)Oc1c(C(C)C)cccc1C(C)C | > 50 |  | 143% | -52% | -72 |
| CC(C)c1cc(O)cc(C(C)C)c1OC(=O)NS(=O)(=O)Oc1c(C(C)C)cccc1C(C)C | > 50 | -5% | 95% | -25% | -55 |
| CCCCCCCCN(C)S(=O)(=O)NC(=O)Oc1c(C(C)C)cccc1C(C)C | 22 | -57% | 88% | -64% |  |
| CC(C)c1cccc(C(C)C)c1OS(=O)(=O)NC(=O)Oc1c(C(C)(C)C)cc(C(C)(C)C)cc1C(C)(C)C | 26 | -69% | 108% | -78% | -76 |
| CC(C)c1cccc(C(C)C)c1OC(=O)NS(=O)(=O)N(Cc1ccccc1)C(C)C | 12 | -59% | 114% | -69% |  |
| CC(C)c1cccc(C(C)C)c1OS(=O)(=O)NC(=O)Oc1c(C(C)C)c(C(C)C)c(F)c(C(C)C)c1C(C)C | 13 | -47% | 208% | -74% | -71 |
| CC(C)c1cc(C(C)C)c(OC(=O)NS(=O)(=O)Oc2c(C(C)C)cc(C(C)C)cc2C(C)C)c(C(C)C)c1 | 22 | -32% | 129% | -62% | -65 |
| CC(C)c1cccc(C(C)C)c1OS(=O)(=O)NC(=O)Oc1c(C(C)(C)C)cccc1C(C)(C)C | 12 | -50% | 25% | -64% | -70 |
| CCCCCCCCCCCCOS(=O)(=O)NC(=O)Nc1c(C(C)C)cccc1C(C)C |  | -34% and -53% |  | -55% and -52% |  |
| CCCCCCCCCCCCCCCCCCOS(=O)(=O)NC(=O)Nc1c(C(C)C)cccc1C(C)C | 14 | -5% | 30% | -38% |  |
| CC(C)c1cccc(C(C)C)c1OC(=O)NS(=O)(=O)Oc1c(C(C)(C)C)cccc1C(C)(C)C | 50 | -46% |  |  | -55 |
| CC(C)c1cccc(C(C)C)c1OC(=O)N(C)S(=O)(=O)Oc1c(C(C)C)cccc1C(C)C | 50 | -18% |  |  | -64 |
| COc1cc(C(C)(C)C)c(OC(=O)NS(=O)(=O)Oc2c(C(C)C)cccc2C(C)C)c(C(C)(C)C)c1 |  | -42% and -58% |  | -62% and -76% |  |
| CC(C)CCN(CCC(C)C)S(=O)(=O)NC(=O)Nc1c(C(C)C)cccc1C(C)C | 0.42 | -66% | 133% | -68% |  |
| CC(C)c1cc(C(C)C)c(OC(=O)NS(=O)(=O)Oc2c(C(C)C)cccc2C(C)C)c(C(C)C)c1 | 14 | -57% | 153% | -74% | -79 |
| CC(C)c1cc(C(C)C)c(NC(=O)NS(=O)(=O)Oc2c(C(C)C)cccc2C(C)C)c(C(C)C)c1 | 23 | -51% | 18% | -59% | -68 |
| Cc1cccc(C)c1OS(=O)(=O)NC(=O)Oc1c(C(C)C)cccc1C(C)C | > 50 | -37% |  |  | -58 |
| CC(C)c1cccc(C(C)C)c1OS(=O)(=O)NC(=O)Oc1c(-c2ccccc2)cccc1-c1ccccc1 | 12 |  | 21% | -38% | -46 |
| CCCCCCN(CCCCCC)S(=O)(=O)NC(=O)Nc1c(C(C)C)cccc1C(C)C | 0.51 | -63% | 207% | -69% |  |
| CCCCCCCCCCCCOS(=O)(=O)NC(=O)Oc1c(C(C)C)cccc1C(C)C | 13 | -63% | 31% | -56% | -68 |

| SMILES | IC50 [1] [µM] | Delta TC [2] | Delta HDL [3] | Delta TC [4] | Delta TC [5] [%] |
| --- | --- | --- | --- | --- | --- |
| CC(C)c1cccc(C(C)C)c1NC(=O)NS(=O)(=O)N(C(C)C)C1CCCCC1 | 0.36 | -60% | 94% | -63% |  |
| Cc1cc(C(C)(C)C)c(OC(=O)NS(=O)(=O)Oc2c(C(C)C)cccc2C(C)C)c(C(C)(C)C)c1 | 7.7 | -52% | 205% | -66% | -72 |
| CC(C)c1cccc(C(C)C)c1NC(=O)NS(=O)(=O)N(C)CCc1ccccc1 | 1.7 | -38% | 43% | -45% |  |
| CC(C)c1cccc(C(C)C)c1NC(=O)NS(=O)(=O)N(c1ccccc1)c1ccccc1 | 16 | -27% | 170% | -36% |  |
| CC(C)c1cccc(C(C)C)c1NC(=O)NS(=O)(=O)N(C1CCCCC1)C1CCCCC1 | 0.23 | -60% | 92% | -35% |  |
| CCCCCN(CCCCC)S(=O)(=O)NC(=O)Oc1c(C(C)C)cccc1C(C)C | 1.3 | -66% | 166% | -73% |  |
| CCCCCCCCCCCCCCN(C)S(=O)(=O)NC(=O)Nc1c(C(C)C)cccc1C(C)C | 0.33 | -65% | 19% | -51% |  |
| CCCCCCOS(=O)(=O)NC(=O)Oc1c(C(C)(C)C)cc(C)cc1C(C)(C)C | 95 | -14% |  |  | -56 |
| COc1cc(OC)c(OS(=O)(=O)NC(=O)Oc2c(C(C)C)cccc2C(C)C)c(OC)c1 | > 50 | -37% | 62% | -37% | -61 |
| CCCCCCOS(=O)(=O)NC(=O)Oc1c(C(C)C)cccc1C(C)C | 40 | -18% |  |  | -52 |
| CC(C)CN(CC(C)C)S(=O)(=O)NC(=O)Nc1c(C(C)C)cccc1C(C)C | 0.42 | -61% | 122% | -62% |  |
| CCCN(CCC)S(=O)(=O)NC(=O)Nc1c(C(C)C)cccc1C(C)C | 1.1 | -51% | 78% | -53% | -60 |
| CC(C)c1cccc(C(C)C)c1NC(=O)NS(=O)(=O)N(CC1CCCO1)CC1CCCO1 (stereo unspecified) | 1.7 | -45% | 123% | -56% |  |
| CCCCCCCCN(C)S(=O)(=O)NC(=O)Nc1c(C(C)C)cccc1C(C)C | 3.8 | -57% | 123% | -64% |  |
| CC(C)c1cccc(C(C)C)c1OC(=O)NS(=O)(=O)N(c1ccccc1)c1ccccc1 | 58 | -46% | 320% | -37% |  |
| CC(C)c1cccc(C(C)C)c1OC(=O)NS(=O)(=O)N(C(C)C)C1CCCCC1 | 5.1 | -49% | 188% | -71% |  |
| CCCCCCCCCCCCOC(=O)NS(=O)(=O)Oc1c(C(C)C)cccc1C(C)C | 13 | 1% |  |  | -62 |
| CC(C)c1cccc(C(C)C)c1OC(=O)NS(=O)(=O)Oc1c(C(C)C)cccc1C(C)C |  | -59% and -54% | 233% and 345% | -64% and -68% |  |
| CC(C)c1cccc(C(C)C)c1OC(=O)NS(=O)(=O)N(C(C)C)C(C)C | 15 | -65% | 82% | -59% |  |
| CCC(C)N(C(C)CC)S(=O)(=O)NC(=O)Nc1c(C(C)C)cccc1C(C)C (stereo unspecified) | 0.1 | -65% | 86% | -62% |  |
| CCCCCN(CCCCC)S(=O)(=O)NC(=O)Nc1c(C(C)C)cccc1C(C)C | 0.42 | -68% | 193% | -67% |  |
| CC(C)c1cccc(C(C)C)c1OS(=O)(=O)NC(=O)OC1[C@@H](C(C)C)CCC[C@H]1C(C)C (stereo partly specified) | 3.6 | -29% |  |  | -70 |
| COc1cc(C(C)(C)C)c(OC(=O)NS(=O)(=O)Nc2c(C(C)C)cccc2C(C)C)c(C(C)(C)C)c1 | 15 | -29% | 86% | -47% |  |
| CCCCN(CCCC)S(=O)(=O)NC(=O)Oc1c(C(C)C)cccc1C(C)C |  | -64% and -47% | 109% and 113% | -69% and -72% |  |
